ChEMBL document CHEMBL1201862, “PubChem BioAssay data set” (2004)
Active and inactive are the calls of the source.

Key:
[1] = inhibitors of Bluetongue virus cytopathic effect, confirmation, arbovirus, BSR cells (AID 1250); format: functional;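 note: protection from viral cytopathic effect measured as cell viability by ATP luminescence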
Mucolipin-3 = Mucolipin-3 (Homo sapiens, UniProt Q8TDD5); assay: Dose response cell-based high-throughput screening assay for agonists of the transient receptor potential channel ML3 (TRPML3). [Related pubchem assays: 1526, 1424, 1448 ]; format: functional
Ion channel NompC = Ion channel NompC (Danio rerio, UniProt Q7T1G6); assay: Fluorescence counterscreen assay for TRPML3 agonists: dose response cell-based high-throughput screening assay to identify agonists of the transient receptor potential channel N1 (TRPN1). [Related pubchem assays: 1526, 1424, 1448 ]; format: functional
NADPH oxidase 1 = NADPH oxidase 1 (Homo sapiens, UniProt Q9Y5S8); format: functional, cell-based;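 note: Cell-based assay with luminescence read-out, IC50 derived from inhibitor dose-response curves; intracellular ROS from endogenous NOX1 in intact HT29 colon cancer cells; potency of inhibitors that lower the ROS luminescence signal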
[2] = target: T1, Zinc finger protein mex-5 (Caenorhabditis elegans, UniProt Q9XUB2); assay: MEX-5/TCR-2 RNA interaction inhibitors, dose response, biochemical, C. elegans, fluorescence polarization (AID 1960)
T1 sequence (Q9XUB2 whole entry): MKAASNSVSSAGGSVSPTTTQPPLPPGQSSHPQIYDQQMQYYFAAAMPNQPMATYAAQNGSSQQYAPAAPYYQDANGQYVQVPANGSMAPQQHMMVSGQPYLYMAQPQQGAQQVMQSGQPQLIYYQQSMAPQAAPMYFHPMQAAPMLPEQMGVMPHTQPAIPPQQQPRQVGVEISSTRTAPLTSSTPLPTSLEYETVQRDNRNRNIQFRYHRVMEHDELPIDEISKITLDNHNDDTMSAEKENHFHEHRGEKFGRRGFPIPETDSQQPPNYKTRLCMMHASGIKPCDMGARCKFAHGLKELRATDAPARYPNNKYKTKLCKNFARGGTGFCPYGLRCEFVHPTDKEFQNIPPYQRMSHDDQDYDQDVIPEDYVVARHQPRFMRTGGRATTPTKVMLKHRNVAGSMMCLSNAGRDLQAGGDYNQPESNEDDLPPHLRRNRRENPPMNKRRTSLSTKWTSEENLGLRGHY

[3] = M. tuberculosis H37Rv growth inhibitors, H37Rv strain (AID 1626); format: functional
[4] = target: T2, Heat shock factor protein 1 (Mus musculus, UniProt P38532); assay: inhibition of MG132-induced HSE-luciferase signal, confirmation, cell-based, NIH3T3, luminescence, dose retest (AID 2382); format: functional;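 note: NIH3T3 fibroblasts with HSF1-driven luciferase reporter stressed by proteasome inhibitor MG132; luminescence from HSF1-driven luciferase expression after 8 hours of MG132 stress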
T2 sequence (P38532 whole entry): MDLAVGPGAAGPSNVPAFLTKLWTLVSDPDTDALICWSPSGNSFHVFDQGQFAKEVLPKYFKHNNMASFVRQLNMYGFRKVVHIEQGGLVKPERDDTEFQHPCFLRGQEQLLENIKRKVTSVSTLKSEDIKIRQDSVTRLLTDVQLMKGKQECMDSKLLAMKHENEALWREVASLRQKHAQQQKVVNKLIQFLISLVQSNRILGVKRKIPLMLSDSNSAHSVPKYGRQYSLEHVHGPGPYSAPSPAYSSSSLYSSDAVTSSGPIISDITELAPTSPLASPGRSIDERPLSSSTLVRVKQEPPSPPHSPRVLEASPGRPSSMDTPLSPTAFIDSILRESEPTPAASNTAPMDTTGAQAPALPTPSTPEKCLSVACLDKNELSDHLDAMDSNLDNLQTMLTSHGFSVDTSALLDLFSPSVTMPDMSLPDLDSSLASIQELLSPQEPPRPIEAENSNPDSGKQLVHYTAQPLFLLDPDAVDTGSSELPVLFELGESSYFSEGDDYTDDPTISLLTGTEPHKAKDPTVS

[5] = target: T3, RNA-binding protein pos-1 (Caenorhabditis elegans, UniProt G5EF15); assay: inhibitors of POS-1/mex-3 RNA binding, dose response, biochemical, fluorescence polarization (AID 1964);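 note: purified POS-1 fused to maltose binding protein made in E. coli; potency of compounds blocking POS-1 binding to fluorescent RNA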
T3 sequence (G5EF15 whole entry): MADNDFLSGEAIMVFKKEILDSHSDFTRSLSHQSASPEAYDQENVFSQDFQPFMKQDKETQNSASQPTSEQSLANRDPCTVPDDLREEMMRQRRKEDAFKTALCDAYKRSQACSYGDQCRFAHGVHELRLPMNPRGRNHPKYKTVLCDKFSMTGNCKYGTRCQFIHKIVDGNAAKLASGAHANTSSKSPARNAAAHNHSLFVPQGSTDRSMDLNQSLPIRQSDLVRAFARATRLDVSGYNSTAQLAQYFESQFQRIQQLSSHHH

Streptococcus = assay: Group A Streptococcus viability loss, dose response, counter-screen for streptokinase expression inhibitor project, luminescence, BacTiterGlo (AID 1915); format: functional, organism-based;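 note: potency for reduction of bacterial viability or growth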
[6] = tested on: Streptococcus sp. 'group A'; assay: growth inhibition of control SK(-) GAS strain, dose response, counter-screen for streptokinase expression inhibitor project, luminescence, kanamycin, BacTiterGlo, confirmation (AID 1900); format: functional, organism-based
Streptokinase A = target: T4, Streptokinase A (Streptococcus pyogenes serotype M1, UniProt P10520); assay: S. pyogenes streptokinase expression inhibitors, potency, dose response, plasminogen activation absorbance, OD405 (AID 1914); format: functional, Streptococcus pyogenes M1 GAS;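 note: secreted streptokinase activity via plasminogen activation per viability signal from cell pellet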
T4 sequence (P10520 whole entry): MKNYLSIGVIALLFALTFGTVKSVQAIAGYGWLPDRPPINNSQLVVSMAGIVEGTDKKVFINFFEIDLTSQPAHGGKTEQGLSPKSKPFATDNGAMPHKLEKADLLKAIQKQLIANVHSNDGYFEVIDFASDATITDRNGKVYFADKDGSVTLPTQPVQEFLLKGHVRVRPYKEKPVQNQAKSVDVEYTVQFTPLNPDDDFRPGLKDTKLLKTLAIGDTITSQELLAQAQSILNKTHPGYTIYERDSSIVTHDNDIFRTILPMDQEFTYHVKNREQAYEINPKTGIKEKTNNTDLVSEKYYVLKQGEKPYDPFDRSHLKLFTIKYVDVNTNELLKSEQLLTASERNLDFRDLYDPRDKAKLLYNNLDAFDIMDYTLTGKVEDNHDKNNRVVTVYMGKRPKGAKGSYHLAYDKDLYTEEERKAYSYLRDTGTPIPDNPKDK

[7] = target: Induced myeloid leukemia cell differentiation protein Mcl-1 (Homo sapiens, UniProt Q07820); format: functional
[8] = HIV-1 Env-mediated cell fusion inhibitors, dose response, CCR5-tropic Env (AID 2279); format: functional

Chain of NADPH oxidase 1 (Q9Y5S8 whole entry): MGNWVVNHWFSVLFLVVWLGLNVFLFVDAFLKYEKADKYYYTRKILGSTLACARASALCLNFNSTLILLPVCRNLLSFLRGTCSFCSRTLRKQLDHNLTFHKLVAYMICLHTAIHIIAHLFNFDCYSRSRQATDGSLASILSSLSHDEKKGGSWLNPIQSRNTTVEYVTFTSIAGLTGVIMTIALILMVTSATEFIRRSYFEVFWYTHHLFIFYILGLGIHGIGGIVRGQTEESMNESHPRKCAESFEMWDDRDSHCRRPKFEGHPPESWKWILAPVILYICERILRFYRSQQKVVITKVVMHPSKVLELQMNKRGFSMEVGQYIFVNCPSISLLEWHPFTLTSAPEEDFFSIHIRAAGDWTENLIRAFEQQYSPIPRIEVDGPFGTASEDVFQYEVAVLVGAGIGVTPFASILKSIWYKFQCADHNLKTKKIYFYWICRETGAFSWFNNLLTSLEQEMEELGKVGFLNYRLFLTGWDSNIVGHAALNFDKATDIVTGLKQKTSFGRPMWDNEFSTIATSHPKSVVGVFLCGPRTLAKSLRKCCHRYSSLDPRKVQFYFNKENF
Chain of Induced myeloid leukemia cell differentiation protein Mcl-1 (Q07820 whole entry, the tested form may be a part): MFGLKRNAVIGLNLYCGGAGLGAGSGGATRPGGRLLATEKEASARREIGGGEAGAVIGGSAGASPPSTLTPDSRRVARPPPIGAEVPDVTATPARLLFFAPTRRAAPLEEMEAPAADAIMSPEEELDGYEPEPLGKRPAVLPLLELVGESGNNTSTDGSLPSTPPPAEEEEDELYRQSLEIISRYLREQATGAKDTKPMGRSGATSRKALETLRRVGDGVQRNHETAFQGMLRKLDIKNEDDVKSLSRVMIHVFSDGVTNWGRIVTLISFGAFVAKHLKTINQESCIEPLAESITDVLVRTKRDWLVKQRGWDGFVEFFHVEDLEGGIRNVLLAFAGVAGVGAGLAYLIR
Chain of Ion channel NompC (Q7T1G6 whole entry): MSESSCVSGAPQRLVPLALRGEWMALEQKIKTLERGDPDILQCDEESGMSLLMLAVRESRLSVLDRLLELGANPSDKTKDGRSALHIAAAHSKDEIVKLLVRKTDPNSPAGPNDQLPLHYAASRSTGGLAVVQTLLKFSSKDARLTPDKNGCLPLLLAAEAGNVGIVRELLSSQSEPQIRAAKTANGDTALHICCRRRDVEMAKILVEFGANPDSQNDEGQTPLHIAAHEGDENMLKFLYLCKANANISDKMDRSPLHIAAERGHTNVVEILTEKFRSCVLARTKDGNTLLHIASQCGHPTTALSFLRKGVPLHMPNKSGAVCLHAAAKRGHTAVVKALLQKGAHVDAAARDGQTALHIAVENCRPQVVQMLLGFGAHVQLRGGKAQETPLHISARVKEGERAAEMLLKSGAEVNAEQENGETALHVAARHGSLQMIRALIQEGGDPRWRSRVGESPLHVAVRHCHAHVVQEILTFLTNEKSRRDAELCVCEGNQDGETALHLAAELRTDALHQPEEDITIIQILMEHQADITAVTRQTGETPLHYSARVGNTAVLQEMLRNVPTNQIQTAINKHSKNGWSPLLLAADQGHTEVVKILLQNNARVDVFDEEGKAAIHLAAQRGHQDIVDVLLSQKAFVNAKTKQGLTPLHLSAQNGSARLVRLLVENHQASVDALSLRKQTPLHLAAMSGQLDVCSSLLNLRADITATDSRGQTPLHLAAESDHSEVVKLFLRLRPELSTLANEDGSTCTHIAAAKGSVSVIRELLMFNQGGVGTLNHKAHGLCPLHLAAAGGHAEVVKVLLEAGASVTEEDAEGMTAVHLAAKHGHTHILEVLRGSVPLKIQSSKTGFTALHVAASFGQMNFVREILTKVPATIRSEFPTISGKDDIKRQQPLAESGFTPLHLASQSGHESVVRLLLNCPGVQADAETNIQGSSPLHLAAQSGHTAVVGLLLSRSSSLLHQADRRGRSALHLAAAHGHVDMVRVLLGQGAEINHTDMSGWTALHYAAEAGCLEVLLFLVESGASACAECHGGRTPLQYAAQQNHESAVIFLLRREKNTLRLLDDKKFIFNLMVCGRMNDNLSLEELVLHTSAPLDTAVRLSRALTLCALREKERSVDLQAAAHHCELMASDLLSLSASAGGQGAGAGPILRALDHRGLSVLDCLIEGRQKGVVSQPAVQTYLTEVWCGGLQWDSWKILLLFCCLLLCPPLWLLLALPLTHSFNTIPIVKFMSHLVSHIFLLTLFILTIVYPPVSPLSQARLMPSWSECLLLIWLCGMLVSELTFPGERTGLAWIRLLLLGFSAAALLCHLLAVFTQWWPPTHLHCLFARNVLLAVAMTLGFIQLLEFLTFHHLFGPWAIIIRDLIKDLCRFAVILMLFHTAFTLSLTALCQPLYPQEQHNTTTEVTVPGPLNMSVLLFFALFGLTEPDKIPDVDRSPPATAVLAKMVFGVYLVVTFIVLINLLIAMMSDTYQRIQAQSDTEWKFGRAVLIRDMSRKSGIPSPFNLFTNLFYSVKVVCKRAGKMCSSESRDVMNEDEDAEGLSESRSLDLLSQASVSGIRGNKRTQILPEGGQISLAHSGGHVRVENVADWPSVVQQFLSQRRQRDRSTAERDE
Chain of Mucolipin-3 (Q8TDD5 whole entry): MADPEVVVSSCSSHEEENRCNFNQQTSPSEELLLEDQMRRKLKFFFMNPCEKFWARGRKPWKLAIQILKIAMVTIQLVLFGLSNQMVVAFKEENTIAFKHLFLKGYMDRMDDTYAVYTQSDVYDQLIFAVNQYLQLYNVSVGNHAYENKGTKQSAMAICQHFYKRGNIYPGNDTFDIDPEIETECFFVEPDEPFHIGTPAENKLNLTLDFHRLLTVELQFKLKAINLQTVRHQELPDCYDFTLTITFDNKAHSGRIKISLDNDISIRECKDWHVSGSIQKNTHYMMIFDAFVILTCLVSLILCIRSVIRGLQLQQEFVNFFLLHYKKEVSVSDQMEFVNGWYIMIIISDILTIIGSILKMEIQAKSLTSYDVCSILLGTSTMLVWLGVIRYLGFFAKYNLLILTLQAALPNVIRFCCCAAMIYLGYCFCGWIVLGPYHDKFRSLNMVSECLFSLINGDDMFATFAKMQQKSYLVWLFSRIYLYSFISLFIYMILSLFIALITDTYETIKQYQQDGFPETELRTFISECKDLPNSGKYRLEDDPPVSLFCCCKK

Which IC50 [1] does the source give for `COc1ccc(-c2c3c(cc(C)[n+]2[O-])oc2ccc(OC)cc23)cc1` here?
Its IC50 is 22 µM (active).

What does the source list for `COc1cc(S(=O)(=O)N(C)C2CCCCC2)c(C)cc1C`?
EC50 (Mucolipin-3): 3.06 µM (active); EC50 (Ion channel NompC): > 29.9 µM (not active)

For `O=[N+]([O-])c1ccc(-c2nc(-c3ccccc3)c(-c3ccccc3)[nH]2)cc1`, which IC50 (NADPH oxidase 1) is on record?
Its IC50 is > 17 µM (not active).

Which results are given for `COc1ccc(/N=C/c2c(O)ccc3ccccc23)cc1`?
EC50 [2]: > 300 µM (not active); IC50 [3]: > 100 µM (active); EC50 [4]: 35.1 µM (active); EC50 [5]: > 300 µM (not active)

What does the source list for `CC1(c2ccccc2)CC(C)(C)N2C(=O)/C(=C3\SC(=S)NC3=O)c3cccc1c32` (stereo not drawn)?
EC50 (Streptococcus): 3.08 µM (active); EC50 [6]: 0.435 µM (active); EC50 (Streptokinase A): > 150 µM (not active); IC50 [7]: 1.18 µM (active); IC50 [8]: 9.92 µM (active)
